Measured values reported in paper PMC3306470 (ACS chemical biology, 2012).

Experiments:
PARG [1] = assay: PARG in vitro assay; conditions: for PARG inhibition: 0.5 h incubation with 32P-PAR
PARG [2] = assay: PARG in vitro assay under the original salicylanilide conditions; conditions: 10 μM; phosphate buffer, 5 min; both in the absence and presence of 0.1% Triton X-100
PARG [3] = conditions: cited from earlier work
[4] = biological target: endogenous PARG in whole cell lysate generated from mouse embryonic fibroblasts (MEFs) (Mus musculus, UniProt O88622); assay: Processing of 32P-PAR by MEF whole cell lysate; format: biochemical; conditions: 25 μM, MEF lysate 1.5 μg
Sequence of endogenous PARG in whole cell lysate generated from mouse embryonic fibroblasts (MEFs) (O88622 whole entry): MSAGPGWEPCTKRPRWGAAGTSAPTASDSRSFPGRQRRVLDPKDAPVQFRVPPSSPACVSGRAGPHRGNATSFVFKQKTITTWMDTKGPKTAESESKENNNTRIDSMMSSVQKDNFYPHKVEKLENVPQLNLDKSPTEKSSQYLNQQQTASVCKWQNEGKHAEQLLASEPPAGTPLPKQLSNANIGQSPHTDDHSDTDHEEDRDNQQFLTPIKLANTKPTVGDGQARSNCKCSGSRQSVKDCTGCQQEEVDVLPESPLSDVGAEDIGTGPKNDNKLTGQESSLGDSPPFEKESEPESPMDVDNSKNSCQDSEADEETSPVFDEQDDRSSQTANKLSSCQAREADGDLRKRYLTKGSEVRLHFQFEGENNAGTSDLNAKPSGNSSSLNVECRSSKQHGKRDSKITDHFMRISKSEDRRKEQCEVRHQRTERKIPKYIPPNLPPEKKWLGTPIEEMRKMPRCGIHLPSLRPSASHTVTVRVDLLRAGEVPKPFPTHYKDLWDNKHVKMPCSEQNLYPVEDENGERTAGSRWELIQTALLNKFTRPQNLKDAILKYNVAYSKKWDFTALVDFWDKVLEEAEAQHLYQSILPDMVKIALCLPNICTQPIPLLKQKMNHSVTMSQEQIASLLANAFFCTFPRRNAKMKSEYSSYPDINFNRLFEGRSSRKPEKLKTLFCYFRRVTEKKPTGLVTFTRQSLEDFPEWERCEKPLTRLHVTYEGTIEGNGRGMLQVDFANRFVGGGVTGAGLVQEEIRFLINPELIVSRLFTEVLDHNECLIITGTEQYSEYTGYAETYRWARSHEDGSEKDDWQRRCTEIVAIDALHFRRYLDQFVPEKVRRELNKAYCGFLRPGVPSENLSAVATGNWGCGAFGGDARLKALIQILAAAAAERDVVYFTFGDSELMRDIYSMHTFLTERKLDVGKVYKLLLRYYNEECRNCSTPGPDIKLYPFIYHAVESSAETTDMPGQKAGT

[5] = not told; cited from earlier work
ß-lactamase = assay: ß-Lactamase assay

intact PAR at 60 min [4] | inhibition of ß-lactamase (ß-lactamase; 50 μM, absence of detergent) [%] | inhibition of ß-lactamase in the presence of detergent (ß-lactamase; 5-50 μM, 0.1% Triton X-100) [%] | SMILES | PARG inhibition (PARG [1]; 0.5 μM) | PARG inhibition (PARG [1]; 25 μM) [%] | PARG inhibition after prolonged incubation (PARG [1]; 0.5 – 25 μM, 2 h incubation with 32P-PAR) | PARG inhibition (PARG [2]) | partial inhibition of PARG (PARG [3]) | IC50 (PARG [3]; read-out: IC50 for PARG inhibition, literature value) [µM] | cell permeability [5] | effect of detergent on inhibition of PARG (PARG [1]; compound 50 μM, presence or absence of 0.1% Triton X-100, 2 h)
approx. 80% |  |  | Nc1ncnc2c1ncn2[C@@H]1O[C@H](CO[P@](=O)(O)O[P@@](=O)(O)OC[C@H]2NC[C@H](O)[C@@H]2O)[C@@H](O)[C@H]1O [ADP-HPD, Adenosine diphosphate (hydroxymethyl)pyrrolidinediol] | partially inhibited | 67 | only minimal PARG inhibition | complete inhibition | partial inhibition of PARG | 0.12 | lack of cell permeability | 
 | 100 | < 10 | Nc1c(/N=N/c2ccc(-c3ccc(/N=N/c4cc(S(=O)(=O)O)c5ccccc5c4N)cc3)cc2)cc(S(=O)(=O)O)c2ccccc12 [Congo Red] |  |  |  |  |  |  |  | complete loss of inhibition
